# From PMC4364341, “NBD delivery improves the disease phenotype of the golden retriever model of Duchenne muscular dystrophy” (Skeletal Muscle, 2014)
# Legend:
# GRMD dogs [1] = experiment: Eccentric contraction decrement (ECD), GRMD dogs; assay type: in vivo, dog; details: n = 6; for ECD (1-10): after 10 contractions; for ECD (1-30): after 30 contractions
# Description: Eccentric contractions were induced by stimulating the peroneal nerve using square wave pulses of 100 μs duration in a tetanic run for 1 s at a frequency of 50 Hz while simultaneously extending the TTJ with a servomotor (Aurora Scientific, Aurora, ON, Canada). The contraction was held isometric at the optimal joint angle, expressed as Lo here (see discussion above), for the first 900 ms. For the final 100 ms, the muscles of the cranial tibial compartment were stretched by the servomotor at 0.7 Lo/s, such that the muscles were displaced to 107% of Lo. Thus, the muscles of the cranial tibial compartment were repeatedly stretched to induce mechanical damage. Three sets of 10 stretches for a total of 30, each set separated by 4 min, were performed. Contraction-induced injury was quantified by the force (torque) deficit (Fd) using the following equation: Fd = (Maximal isometric tetanic force (Po) before stretch - Po after stretch/Po before stretch) × 100.
# GRMD dogs [2] = experiment: Joint and pelvic angles, GRMD dogs; assay type: in vivo, dog; details: n = 6
# Description: We previously reported that 6-month-old GRMD dogs have abnormally acute (contracted) TTJ angles while positioned in dorsal recumbence for force measurements. Other investigators have subsequently described methods to measure joint angles at maximal flexion and extension, with associated range of motion, in wild type dogs. The method of Jaegger et al.[29] is now utilized to measure pelvic limb tibiotarsal (hock, ankle), stifle (knee), and coxofemoral (hip) joint angles for ongoing natural history and preclinical trials in our laboratory. In each case, dogs were anesthetized (above) and positioned in lateral recumbence. Angles at rest, maximal flexion, and maximal extension were measured. To objectively characterize the cranioventral shift of the pelvis typically seen in GRMD dogs, we also measured the pelvic angle formed by two lines extending cranially from the tuber ischium, one drawn parallel to the lumbar spine and the other extending to the midpoint of the tuber coxae.
# mdx mice = details: cited from earlier work
# Description: […] […] Our ability to collectively achieve such a benefit in GRMD dogs, as well as in mdx diaphragm, [9, 13] and dko hearts, supports the pre-clinical efficacy of NBD. Due to interspecies differences among mice, dogs, and humans, it is difficult to say e ...
# GRMD dogs [3] = experiment: MRI of proximal pelvic limb muscles, GRMD dogs; assay type: in vivo, dog; design: MRI T2 mapping value: unit not given here; details: 6 months, NBD 10 mg/kg IV 3x weekly for 4 months, n = 6
# Description: Studies were done on a Siemens 3 T Allegra Head-Only MRI scanner with a circular polarization (CP) head coil or Siemens 3 T Tim Trio Whole-Body MRI scanner with a 32-channel body coil at the UNC-CH Biomedical Research Imaging Center (BRIC). Dogs were anesthetized (above), placed on an MRI gantry in the sternal (prone) position with the pelvic limbs extended, and positioned in the coil centered at the midpoint of the femur. The proximal pelvic limbs from the coxofemoral joint to the stifle were imaged bilaterally. Scans were completed using a published protocol. T2-weighted image sequences without (T2w) and with fat saturation (T2fs) were acquired using a variable-flip-angle turbo spin echo (TSE) sequence. The time between the excitation pulse and the center of k-space was 400 ms. Importantly, the contrast was not determined only by the TE (400 ms), but also by the flip angle evolution scheme. Although a traditional TSE sequence would have very little signal at 400 ms, the variable flip angle sequence is similar in principle to hyper-echo. The hyper-echo reduces the specific absorption rate (SAR), while the variable flip angle sequence allows long TE times. A multi-spin-echo T2 (MSE-T2), using a 10-echo Carr-Purcell-Meiboom-Gill sequence, was acquired to calculate the T2 value map. Analysis of the images was completed in three modules: muscle segmentation, pre-processing, and biomarker analysis. As a prerequisite, we first segmented the major proximal pelvic limb muscles in the MRI images. All proximal pelvic limb muscles were segmented but only five slices at the midfemur were analyzed and averaged.
# For the sake of this study, the biomarker analysis was limited to muscle volumes, T2 mapping values, and several texture analysis features, including a first-order intensity histogram texture feature (entropy) and two high order run length matrix features (short run emphasis (SRE) and run length non-uniformity (RLN)). These texture analysis features were assessed as potential markers of patchy lesions such as necrosis. Based on the mathematical model, we refer to short run emphasis as the Small Lesion Index (SLI) and non-uniformity as the Heterogeneity Index (HI). Both SLI and HI use the run-length matrix method. Compared to histogram-based biomarkers that use intensity data only, the run-length matrix method also takes into account the spatial distribution and intensity of the voxels. A gray-level ‘run’ is defined as a set of consecutive voxels of similar intensity level in a given direction within a predefined similarity range. This is run in a three-dimensional matrix and is intended to detect lumps of hyper-intensity in MRI. To determine overall muscle scores for T2 and the texture features in each group, the proportional muscle volume was considered, so as to calculate a weighted average.
# [4] = NBD group, age 2 months (start of treatment)
# [5] = age 6 months, NBD 10 mg/kg IV 3x weekly for 4 months
sequence,measurement,setting,value
"TALDWSWLQTE [NBD, NBD peptide (…) fused to an Antennapedia protein transduction domain]",ECD (1-10),GRMD dogs [1]; [4],16.12 ± 5.88%
same,ECD (1-10),GRMD dogs [1]; [5],32.04 ± 13.46%
same,ECD (1-30),GRMD dogs [1]; [4],38.67 ± 10.34%
same,ECD (1-30),GRMD dogs [1]; [5],54.48 ± 13.64%
same,Hip (Resting) angle,GRMD dogs [2]; [4],103.7 ± 2.94
same,Maximum Hip Flexion,GRMD dogs [2]; [4],44.67 ± 5.47 °
same,Pelvic Angle,GRMD dogs [2]; [4],41.00 ± 6.81 °
same,TTJ Angle,GRMD dogs [2]; [4],157.00 ± 9.80 °
same,Hip (Resting) angle,GRMD dogs [2]; [5],100.2 ± 6.01^2
same,Maximum Hip Flexion,GRMD dogs [2]; [5],46.33 ± 3.50^2 °
same,Pelvic Angle,GRMD dogs [2]; [5],36.83 ± 5.12^2 °
same,TTJ Angle,GRMD dogs [2]; [5],160.17 ± 8.84 °
same,Efficacy on dose reduction,"mdx mice; IP 3x per week, concentrations of NBD reduced from 10 to 2 mg/kg",efficacy was lost
same,"Functional improvement, mdx diaphragm",mdx mice; NBD-treated mdx mice,43%
same,"MRI HI (Heterogeneity Index, run length non-uniformity)",GRMD dogs [3]; Adductor,116.2 ± 22.37
same,"MRI SLI (Small Lesion Index, short run emphasis)",GRMD dogs [3]; Adductor,0.72 ± 0.02
same,MRI T2 mapping value,GRMD dogs [3]; Adductor,39.52 ± 4.76
same,"MRI HI (Heterogeneity Index, run length non-uniformity)",GRMD dogs [3]; All muscles (weighted average),86.01 ± 18.28
same,"MRI SLI (Small Lesion Index, short run emphasis)",GRMD dogs [3]; All muscles (weighted average),0.70 ± 0.04^^
same,MRI T2 mapping value,GRMD dogs [3]; All muscles (weighted average),47.34 ± 3.10^^
same,"MRI HI (Heterogeneity Index, run length non-uniformity)",GRMD dogs [3]; Biceps Femoris,87.50 ± 48.42
same,"MRI SLI (Small Lesion Index, short run emphasis)",GRMD dogs [3]; Biceps Femoris,0.68 ± 0.06^^
same,MRI T2 mapping value,GRMD dogs [3]; Biceps Femoris,40.20 ± 4.91^^
same,"MRI HI (Heterogeneity Index, run length non-uniformity)",GRMD dogs [3]; Caudal Sartorius,35.21 ± 14.92
same,"MRI SLI (Small Lesion Index, short run emphasis)",GRMD dogs [3]; Caudal Sartorius,0.83 ± 0.05
same,MRI T2 mapping value,GRMD dogs [3]; Caudal Sartorius,53.87 ± 9.88
same,"MRI SLI (Small Lesion Index, short run emphasis)",GRMD dogs [3]; Cranial Sartorius,0.79 ± 0.05
same,MRI T2 mapping value,GRMD dogs [3]; Cranial Sartorius,49.40 ± 9.01
same,"MRI HI (Heterogeneity Index, run length non-uniformity)",GRMD dogs [3]; Gracilis,58.90 ± 30.66
same,"MRI SLI (Small Lesion Index, short run emphasis)",GRMD dogs [3]; Gracilis,0.70 ± 0.06^^
same,MRI T2 mapping value,GRMD dogs [3]; Gracilis,45.91 ± 3.50
same,"MRI HI (Heterogeneity Index, run length non-uniformity)",GRMD dogs [3]; Rectus Femoris,55.42 ± 21.95
same,"MRI SLI (Small Lesion Index, short run emphasis)",GRMD dogs [3]; Rectus Femoris,0.68 ± 0.07^^
same,MRI T2 mapping value,GRMD dogs [3]; Rectus Femoris,37.23 ± 4.72
same,"MRI HI (Heterogeneity Index, run length non-uniformity)",GRMD dogs [3]; Semimembranosus,78.15 ± 33.31
same,"MRI SLI (Small Lesion Index, short run emphasis)",GRMD dogs [3]; Semimembranosus,0.68 ± 0.06
same,MRI T2 mapping value,GRMD dogs [3]; Semimembranosus,39.42 ± 4.86
same,"MRI HI (Heterogeneity Index, run length non-uniformity)",GRMD dogs [3]; Semitendinosus,81.43 ± 35.00
same,"MRI SLI (Small Lesion Index, short run emphasis)",GRMD dogs [3]; Semitendinosus,0.67 ± 0.08^^
same,MRI T2 mapping value,GRMD dogs [3]; Semitendinosus,40.41 ± 4.97^^
same,"MRI HI (Heterogeneity Index, run length non-uniformity)",GRMD dogs [3]; Vastus Intermedius,59.10 ± 27.19
same,"MRI SLI (Small Lesion Index, short run emphasis)",GRMD dogs [3]; Vastus Intermedius,0.68 ± 0.09
same,MRI T2 mapping value,GRMD dogs [3]; Vastus Intermedius,41.91 ± 5.91^^
same,"MRI HI (Heterogeneity Index, run length non-uniformity)",GRMD dogs [3]; Vastus Lateralis,52.92 ± 27.20
same,"MRI SLI (Small Lesion Index, short run emphasis)",GRMD dogs [3]; Vastus Lateralis,0.68 ± 0.04^^
same,MRI T2 mapping value,GRMD dogs [3]; Vastus Lateralis,40.67 ± 5.84^^
same,"MRI HI (Heterogeneity Index, run length non-uniformity)",GRMD dogs [3]; Vastus Medialis,52.55 ± 22.29
same,"MRI SLI (Small Lesion Index, short run emphasis)",GRMD dogs [3]; Vastus Medialis,0.77 ± 0.09
same,MRI T2 mapping value,GRMD dogs [3]; Vastus Medialis,42.74 ± 5.65
